Source: article PMC5632533, “Mechanisms of action and in vivo antibacterial efficacy assessment of five novel hybrid peptides derived from Indolicidin and Ranalexin against Streptococcus pneumoniae” (PeerJ, 2017)

Tested on: ICR (CD-1) mice
Assay: In vivo toxicity in mice (SC, IN, IP routes)
Parameters: Aspartate aminotransferase, AST / Alanine transaminase, ALT / Alkaline phosphatase, ALP / Creatinine / Urea / Total bilirubin: unit not given here
Conditions: for Eosinophil / Erythrocytes, RBC / Granulocytes / Hematocrit, HCT / Hemoglobin Hgb / Lymphocytes / Mean corpuscular haemoglobin concentration, MCHC / Mean corpuscular haemoglobin, MCH / Monocytes / White blood cells, WBC / platelet Counts, PLT / Mean corpuscular volume, MCV / Alanine transaminase, ALT / Alkaline phosphatase, ALP / Aspartate aminotransferase, AST / Creatinine / Total bilirubin / Urea: 3 doses (1hr, 12hr, 24hr), RN7-IN9, RN7-IN6 10 mg/kg, day 7, mean±SD, 4 mice; for Alanine transaminase, ALT / Alkaline phosphatase, ALP / Aspartate aminotransferase, AST / Creatinine / Total bilirubin / Urea: serum
Protocol: In this study, 4-week old male, pathogen free ICR (CD-1) mice were purchased from InVivos (Lim Chu Kang, Singapore) and used to assess the in vivo toxicity and antibacterial efficacy of the novel peptides, as these animals are by far the most commonly used model for the study of pneumococcal disease ([Chiavolini, Pozzi & Ricci, 2008]). The mice were kept in ventilated polycarbonate cages (12 h light/dark cycle, 20 ± 2 °C and 55% relative humidity). All mice were familiarized for seven days before any experimental procedure and were given unlimited pellets and water ad libitum. All animal experimentations were conducted according to the guidelines approved by Faculty of Medicine Institutional Animal Care and Use Committee (FOM IACUC), University of Malaya (ethics Reference no. : 2013-07-15/MMBTR/SDS).
In order to evaluate the possible toxic effects correlated to peptides administered in mice, four hybrid peptides RN7-IN10, RN7-IN9, RN7-IN8 and RN7-IN6 were chosen for in vivo toxicity assessment, due to their promising in vitro antibacterial activity ([Jindal et al., 2015]). Mice were separated into four groups (each with four mice) and were injected with respective peptides at 1 h, 12 h, and 24 h (three-dose regimen) via IP, SC, and IN administration routes. The hybrid peptides were first administered at high doses (100 mg/kg for IP route, 100 mg/kg for SC routes and 20 mg/kg for IN route). Any abnormal behavior was recorded and survival of mice was noted as well. In case adverse effects such as high physical stress, severe lethargy, physical inactiveness, and/or death were detected, lower graded doses were given. All the administered mice were monitored for seven days or until death occurred. At day seven post administration, all animals were sacrificed and blood and organs were collected. Untreated mice were used as a control group.
Mice used to evaluate the in vivo toxicity and antibacterial activity of the hybrid peptides using the subcutaneous (SC) and intranasal (IN) administration routes, were anesthetized using a combination of a standard dose of xylazine (ilium xylazil-20, 10 mg/kg) and ketamine (Narketan®-10, 100 mg/kg) through intraperitoneal (IP) injection. After seven days of treatment, the in vivo toxicity and antibacterial efficacy experiments were ended and the surviving mice were anesthetized. Blood samples for Hematological and biochemical analysis were collected via cardiac puncture using a 25G syringe (BD bioscience, San Jose, CA, USA). Whole blood for heamatological analysis was collected in 500 µl dipotassium EDTA microtainer tubes (BD Bioscience, USA). About 500 µl of blood collected an eppedorff tube and centrifuged at 8000 rpm for 5 min and then the serum was transferred into a new 1.5 ml tube for biochemistry analysis. The mice were then euthanized by cervical dislocation, dissected and the following organs were collected for histopathology evaluation: lung, kidney, brain, liver and spleen.
For whole blood analysis, the parameters were number of red cells (RBC), number of white cells (WBC), lymphocytes, monocytes, eosinophil, granulocytes, haemoglobin (Hgb), mean corpuscular volume (MCV), hematocrit (HCT), platelet Counts (PLT), Mean corpuscular haemoglobin (MCH) and corpuscular haemoglobin concentration (MCHC). For biochemistry analysis, the parameters were alanine transaminase (ALT), creatinine, alkaline phosphatase (ALP), aspartate aminotransferase (AST), total bilirubin and urea.
The following organs were collected from all the dissected mice: lung, kidney, brain, spleen, and liver. All tissues were fixed in 10% (v/v) buffered formalin and processed for paraffin embedding. Hematoxylin–eosin (HE) was used to stain the histological sections at the histopathology laboratory, Veterinary Laboratory Service Unit, University Putra Malaysia (UPM).

[1] = IN, head doses: RN7-IN10, RN7-IN8 20 mg/kg
[2] = SC, head doses: RN7-IN10, RN7-IN8 20 mg/kg

FLGGLIKKWPWWPWRR-NH2 [RN7-IN9, hybrid peptide of ranalexin (residues 1-7) and indolicidin (residues 5-13)]
Eosinophil [1]: 3.2±1.2% | Erythrocytes, RBC [1]: 9.36±0.9 10^6/mm^3 | Granulocytes [1]: 56.2±10.81% | Hematocrit, HCT [1]: 46.82±4.23% | Hemoglobin Hgb [1]: 14.9 ± 1.32 g/dL | Lymphocytes [1]: 41.27±10.56% | Mean corpuscular haemoglobin concentration, MCHC [1]: 31.85 ± 0.17 g/dL | Mean corpuscular haemoglobin, MCH [1]: 15.95 ± 0.33 pg | Monocytes [1]: 2.52±0.27% | White blood cells, WBC [1]: 5.2±2.35 10^3/mm^3 | platelet Counts, PLT [1]: 656.75±76.9 10^3/mm^3 | Eosinophil (IP, RN7-IN10, RN7-IN8 20 mg/kg): 3.95±2.56% | Erythrocytes, RBC (IP, RN7-IN10, RN7-IN8 20 mg/kg): 8.06±1.04 10^6/mm^3 | Granulocytes (IP, RN7-IN10, RN7-IN8 20 mg/kg): 53.02±4.07% | Hematocrit, HCT (IP, RN7-IN10, RN7-IN8 20 mg/kg): 41.42±5.25% | Hemoglobin Hgb (IP, RN7-IN10, RN7-IN8 20 mg/kg): 13.9 ± 1.67 g/dL | Mean corpuscular haemoglobin concentration, MCHC (IP, RN7-IN10, RN7-IN8 20 mg/kg): 33.63 ± 0.34 g/dL | Mean corpuscular haemoglobin, MCH (IP, RN7-IN10, RN7-IN8 20 mg/kg): 17.25 ± 0.78 pg | Mean corpuscular volume, MCV (IP, RN7-IN10, RN7-IN8 20 mg/kg): 51.5±2.64 µm^3 | Monocytes (IP, RN7-IN10, RN7-IN8 20 mg/kg): 2.47±0.25% | White blood cells, WBC (IP, RN7-IN10, RN7-IN8 20 mg/kg): 3.7±1.54 10^3/mm^3 | platelet Counts, PLT (IP, RN7-IN10, RN7-IN8 20 mg/kg): 674±118.72 10^3/mm^3 | maximum IP dose at which no signs of stress or abnormal behavior were evident (non-toxic dose) (IP, doses at 1 h, 12 h, 24 h, no death up to seven days): 10 mg/kg | Eosinophil [2]: 2.77±0.54% | Erythrocytes, RBC [2]: 9.22±0.98 10^6/mm^3 | Granulocytes [2]: 55.55±4.52% | Hematocrit, HCT [2]: 46.15±5.19% | Hemoglobin Hgb [2]: 15.75 ± 1.4 g/dL | Lymphocytes [2]: 46.47±5.48% | Mean corpuscular haemoglobin concentration, MCHC [2]: 34.2 ± 1.37 g/dL | Mean corpuscular haemoglobin, MCH [2]: 17.1 ± 0.53 pg | Mean corpuscular volume, MCV [2]: 51±1.82 µm^3 | Monocytes [2]: 1.95±0.1% | White blood cells, WBC [2]: 4.32±0.55 10^3/mm^3 | platelet Counts, PLT [2]: 449.75±100.23 10^3/mm^3 | Alanine transaminase, ALT [1]: 41.22±15.75 | Alkaline phosphatase, ALP [1]: 127.75±6.07 | Aspartate aminotransferase, AST [1]: 141.2±23.08 | Creatinine [1]: 37.66±1.26 | Total bilirubin [1]: 2.01±0.27 | Urea [1]: 9.6±1.02 | Alanine transaminase, ALT (IP, RN7-IN10, RN7-IN8 20 mg/kg): 51.54±5.83 | Aspartate aminotransferase, AST (IP, RN7-IN10, RN7-IN8 20 mg/kg): 172.33±26.35 | Creatinine (IP, RN7-IN10, RN7-IN8 20 mg/kg): 37.3±3.51 | Total bilirubin (IP, RN7-IN10, RN7-IN8 20 mg/kg): 1.9±0.02 | Urea (IP, RN7-IN10, RN7-IN8 20 mg/kg): 10.56±5.2 | Alanine transaminase, ALT [2]: 43.17±13.81 | Alkaline phosphatase, ALP [2]: 131.25±19.7 | Aspartate aminotransferase, AST [2]: 188.33±11.22 | Creatinine [2]: 35±1.27 | Total bilirubin [2]: 2.2±0.13 | Urea [2]: 8.84±1.04
